Experimental data from US8614324B2, “Filamin A binding anti-inflammatory and analgesic” (priority 2008, dated 2013).

Assays:
[1] = system: IL-6 release from primary human astrocytes; assay: LPS-induced cytokine release from primary human astrocytes, IL-6; assay type: cell-based
Method: (§1) The following study was undertaken to investigate whether contemplated compounds and (+)NLX affect LPS-induced release of the pro-inflammatory cytokine (IL-1β, IL-6 and TNF-α) release from primary human astrocytes. […]
(§2) Primary astrocytes culture was prepared according to the provider's instructions (Lonza). The adherent astrocytes were trypsinized by 0.25% trypsin-EDTA, then collected and sub-cultured in 12-well plate (1.2 ml/well). […] Vehicle groups were pretreated with 0.1% DMSO only. Following addition of LPS, incubation continued for 24 hours. Culture medium was used as the blank and the levels of cytokines, TNF-α, IL-6 and IL-1β in 200 μl of culture medium were determined. Each well was sampled twice.
(§3) Plates were washed 3 times with ice-cold 50 mM Tris HCl (pH 7.4) and incubated at 30° C. with 200 μl medium derived from the above mentioned conditions. Plates were washed 3 times with ice-cold 50 mM Tris HCl (pH 7.4) and incubated at 30° C. with 0.5 μg/well un-conjugated rabbit anti-anti-INF-α, -IL-6 and -IL-1β for 1 hour. After two 1 minute washes with 50 mM Tris HCl (pH 7.4), each well was incubated in 0.5 μg/well FITC-conjugated anti-rabbit IgG (human and mouse absorbed) for 1 hour at 30° C. Plates were washed twice with 200 μl ice-cold Tris HCl, pH 7.4 and the residual […] signals were determined by multimode plate reader, DTX880 (Beckman).

[2] = system: IL-1β release from primary human astrocytes; assay: LPS-induced cytokine release from primary human astrocytes, IL-1β; assay type: cell-based
Method: as §1, §2, §3

[3] = system: TNF-α release from primary human astrocytes; assay: LPS-induced cytokine release from primary human astrocytes, TNF-α; assay type: cell-based
Method: as §1, §2, §3

[4] = target: Bn-VAKGL pentapeptide of filamin A (FLNA) (Homo sapiens, UniProt P21333); assay: FITC-NLX-based FLNA screening assay (FLNA peptide binding assay); details: 10 nM FITC-NLX
Method: The final assay volume is 100 μl.
Compounds are tested in triplicate or quadruplicate.

[5] = target: T1, mu opiate receptor (MOR) (Rattus norvegicus, UniProt P33535); assay: MOR agonist activity, [35S]GTPγS binding assay using striatal membranes; assay type: biochemical; parameters: MOR agonist activity, [35S]GTPγS binding to Gαo: reference not given here; details: for % DAMGO (0.1 μM): 0.1 μM compound relative to DAMGO; for % DAMGO + BFNA: 1 μM compound + BFNA relative to DAMGO + BFNA; for % DAMGO (1 μM): 1 μM compound relative to DAMGO
T1 construct: from tissue; host or cells: striatal membrane preparation (rat striatum)
Method: To assess the mu opiate receptor (MOR) agonist activity of positive compounds from the FLNA screening, compounds were tested in a [^35S]GTPγS binding assay using striatal membranes.
Striatal tissue was homogenized in 10 volumes of ice cold 25 mM HEPES buffer, pH 7.4, which contained 1 mM EGTA, 100 mM sucrose, 50 μg/ml leupeptin, 0.04 mM PMSF, 2 μg/ml soybean trypsin inhibitor and 0.2% 2-mercaptoethanol. The homogenates were centrifuged at 800×g for 5 minutes and the supernatants were centrifuged at 49,000×g for 20 minutes. The resulting pellets were suspended in 10 volume of reaction buffer, which contained 25 mM HEPES, pH 7.5, 100 mM NaCl, 50 μg/ml leupeptin, 2 μg/ml soybean trypsin inhibitor, 0.04 mM PMSF and 0.02% […].
The resultant striatal membrane preparation (200 μg) was admixed and maintained (incubated) at 30° C. for 5 minutes in reaction buffer as above that additionally contained 1 mM MgCl2 and 0.5 nM [^35S]GTPγS (0.1 μCi/assay, PerkinElmer Life and Analytical Sciences) in a total volume of 250 μl and continued for 5 minutes in the absence or presence of 0.1-10 μM of an assayed compound of interest. The reaction was terminated by dilution with 750 μl of ice-cold reaction buffer that contained 20 mM MgCl2 and 1 mM EGTA and immediate centrifugation at 16,000×g for 5 minutes.
The resulting pellet was solubilized by sonicating for 10 seconds in 0.5 ml of immunoprecipitation buffer containing 0.5% digitonin, 0.2% sodium cholate and 0.5% NP-40. Normal rabbit serum (1 μl) was added to 1 ml of lysate and incubated at 25° C. for 30 minutes. Nonspecific immune complexes were removed by incubation with 25 μl of protein A/G-conjugated agarose beads at 25° C. for 30 minutes followed by centrifugation at 5,000×g at 4° C. for 5 minutes. The supernatant was divided and separately incubated at 25° C. for 30 minutes with antibodies raised against Gαo proteins (1:1,000 dilutions).
The immunocomplexes so formed were collected by incubation at 25° C. for 30 minutes with 40 μl of agarose-conjugated protein A/G beads and centrifugation at 5,000×g at 4° C. for 5 minutes. The pellet was washed and suspended in buffer containing 50 mM Tris-HCl, pH 8.0, and 1% NP-40. The radioactivity in the suspension was determined by liquid scintillation spectrometry. […] DAMGO (H-Tyr-D-Ala-Gly-N-MePhe-Gly-OH; 1 or 10 μM) was used as a positive control.

[6] = 10 pM compound 2 hours prior to LPS (1 μg/ml) and continued 24 hours
[7] = 1 nM compound 2 hours prior to LPS (1 μg/ml) and continued 24 hours
[8] = 0.1 μM compound, striatal membranes
[9] = 1 μM compound + BFNA (1 μM β-funaltrexamine)
[10] = 1 μM compound, striatal membranes

T1 sequence (P33535 whole entry): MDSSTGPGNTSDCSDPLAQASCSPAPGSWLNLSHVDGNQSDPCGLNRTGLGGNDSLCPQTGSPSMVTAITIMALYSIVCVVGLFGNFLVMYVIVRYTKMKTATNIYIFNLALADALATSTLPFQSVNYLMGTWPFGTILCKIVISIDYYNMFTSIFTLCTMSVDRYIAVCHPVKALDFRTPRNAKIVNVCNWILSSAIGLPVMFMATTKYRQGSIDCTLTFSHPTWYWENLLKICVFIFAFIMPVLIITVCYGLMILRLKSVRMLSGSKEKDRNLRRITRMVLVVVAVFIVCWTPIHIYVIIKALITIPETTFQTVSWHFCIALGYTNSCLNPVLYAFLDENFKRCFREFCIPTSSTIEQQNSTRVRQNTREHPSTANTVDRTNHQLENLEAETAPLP

Row | SMILES | IL-6 Average % (±SEM) [1, 6] | IL-6 Average % (±SEM) [1, 7] | IL-1β Average % (±SEM) [2, 6] | IL-1β Average % (±SEM) [2, 7] | TNF-α Average % (±SEM) [3, 6] | TNF-α Average % (±SEM) [3, 7] | Percent inhibition of FITC-NLX binding ([4]; 0.01 μM compound) | Percent inhibition of FITC-NLX binding ([4]; 0.1 μM compound) | Percent inhibition of FITC-NLX binding ([4]; 1 μM compound) | % DAMGO (0.1 μM) [5] | MOR agonist activity, [35S]GTPγS binding to Gαo [5, 8] | MOR agonist activity, [35S]GTPγS binding to Gαo [5, 9] | % DAMGO + BFNA [5] | % DAMGO (1 μM) [5] | MOR agonist activity, [35S]GTPγS binding to Gαo [5, 10]
1 | C=CCN1CC[C@]23c4c5ccc(O)c4O[C@H]2C(=O)CC[C@]3(O)[C@H]1C5 [(+)Naloxone, (+)naloxone, reference compound] | 56.9 (4.4) % | 6.8 (4.3) % | 75.9 (4.5) % | 10.5 (4.8) % | 58.6 (2.0) % | 9.2 (6.0) % |  |  |  |  |  |  |  |  | 
2 | COc1ccc(S(=O)(=O)N2CCOC23CCN(C(=O)OC(C)(C)C)CC3)cc1 [Compound C0043] |  |  |  |  |  |  | 43.9% | 51.3% | 58.0% | 103.8% | 175.4% | 83.3% | 501.8% | 110.9% | 242.6%
3 | O=[N+]([O-])c1ccc(S(=O)(=O)N2CCC3(CC2)NCCCO3)cc1 [Compound C0045] |  |  |  |  |  |  | 39.1% | 48.9% | 53.7% | 88.3% | 149.2% | 105.3% | 634.3% | 109.1% | 238.8%
4 | CC(=O)c1ccc(S(=O)(=O)N2CC(CN(C)C)OC23CCN(CC2CC2)CC3)cc1 (stereo not drawn) [Compound C0128M] |  |  |  |  |  |  |  |  |  |  | 197.8% | 63.9% |  |  | 286.0%
5 | COc1ccc(S(=O)(=O)N2CCOC23CCN(C(C)C)CC3)cc1 [Compound C0133M] |  |  |  |  |  |  |  |  |  |  | 139.4% | 72.4% |  |  | 214.8%
6 | Cc1ccc(S(=O)(=O)N2CCOC23CCN(CC2CC2)CC3)cc1 [Compound C0134M] |  |  |  |  |  |  |  |  |  |  | 158.5% | 46.6% |  |  | 207.3%
